Tests used:
Assay in all cases: radiometric filter-binding kinase assay
AURKB (human) = AURKB (human) (UniProt Q96GD4); conditions: compound 100.0 µM; ATP 20 µM
CAMKK2 (human) = CAMKK2 (human) (UniProt Q96RR4); conditions: compound 100.0 µM; ATP 20 µM
CHEK1 (human) = CHEK1 (human) (UniProt O14757); conditions: compound 100.0 µM; ATP 20 µM
CHEK2 (human) = CHEK2 (human) (UniProt O96017); conditions: compound 100.0 µM; ATP 20 µM
CLK2 (human) = CLK2 (human) (UniProt P49760); conditions: compound 100.0 µM; ATP 5 µM
CSK (human) = CSK (human) (UniProt P41240); conditions: compound 100.0 µM; ATP 20 µM
Chain of CSK (human) (P41240 whole entry, looked up): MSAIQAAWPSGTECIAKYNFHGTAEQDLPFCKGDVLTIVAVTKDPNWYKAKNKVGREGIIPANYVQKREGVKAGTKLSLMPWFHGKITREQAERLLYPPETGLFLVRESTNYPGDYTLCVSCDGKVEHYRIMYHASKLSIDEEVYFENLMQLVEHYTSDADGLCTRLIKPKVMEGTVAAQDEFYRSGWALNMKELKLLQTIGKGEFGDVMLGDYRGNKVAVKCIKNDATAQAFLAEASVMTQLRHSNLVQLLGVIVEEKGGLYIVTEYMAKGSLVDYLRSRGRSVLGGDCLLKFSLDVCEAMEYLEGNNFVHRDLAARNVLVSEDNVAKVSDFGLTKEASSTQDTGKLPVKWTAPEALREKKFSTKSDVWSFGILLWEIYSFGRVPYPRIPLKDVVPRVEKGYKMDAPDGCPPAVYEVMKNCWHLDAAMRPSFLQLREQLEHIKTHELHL

DYRK2 (human) = DYRK2 (human) (UniProt Q92630); conditions: compound 100.0 µM; ATP 50 µM
EPHB3 (human) = EPHB3 (human) (UniProt P54753); conditions: compound 100.0 µM; ATP 20 µM
GCK (human) = GCK (human) (UniProt Q12851); conditions: compound 100.0 µM; ATP 20 µM
GSK3B (human) = GSK3B (human) (UniProt P49841); conditions: compound 100.0 µM; ATP 5 µM
HIPK1 (human) = HIPK1 (human) (UniProt Q86Z02); conditions: compound 100.0 µM; ATP 20 µM
IGF1R (human) = IGF1R (human) (UniProt P08069); conditions: compound 100.0 µM; ATP 5 µM
IKBKB (human) = IKBKB (human) (UniProt O14920); conditions: compound 100.0 µM; ATP 5 µM
IRAK4 (human) = IRAK4 (human) (UniProt Q9NWZ3); conditions: compound 100.0 µM; ATP 20 µM
JAK2 JH1 JH2 (human) = JAK2 JH1 JH2 (human) (UniProt O60674); conditions: compound 100.0 µM; ATP 5 µM
Chain of JAK2 JH1 JH2 (human) (O60674 whole entry, looked up): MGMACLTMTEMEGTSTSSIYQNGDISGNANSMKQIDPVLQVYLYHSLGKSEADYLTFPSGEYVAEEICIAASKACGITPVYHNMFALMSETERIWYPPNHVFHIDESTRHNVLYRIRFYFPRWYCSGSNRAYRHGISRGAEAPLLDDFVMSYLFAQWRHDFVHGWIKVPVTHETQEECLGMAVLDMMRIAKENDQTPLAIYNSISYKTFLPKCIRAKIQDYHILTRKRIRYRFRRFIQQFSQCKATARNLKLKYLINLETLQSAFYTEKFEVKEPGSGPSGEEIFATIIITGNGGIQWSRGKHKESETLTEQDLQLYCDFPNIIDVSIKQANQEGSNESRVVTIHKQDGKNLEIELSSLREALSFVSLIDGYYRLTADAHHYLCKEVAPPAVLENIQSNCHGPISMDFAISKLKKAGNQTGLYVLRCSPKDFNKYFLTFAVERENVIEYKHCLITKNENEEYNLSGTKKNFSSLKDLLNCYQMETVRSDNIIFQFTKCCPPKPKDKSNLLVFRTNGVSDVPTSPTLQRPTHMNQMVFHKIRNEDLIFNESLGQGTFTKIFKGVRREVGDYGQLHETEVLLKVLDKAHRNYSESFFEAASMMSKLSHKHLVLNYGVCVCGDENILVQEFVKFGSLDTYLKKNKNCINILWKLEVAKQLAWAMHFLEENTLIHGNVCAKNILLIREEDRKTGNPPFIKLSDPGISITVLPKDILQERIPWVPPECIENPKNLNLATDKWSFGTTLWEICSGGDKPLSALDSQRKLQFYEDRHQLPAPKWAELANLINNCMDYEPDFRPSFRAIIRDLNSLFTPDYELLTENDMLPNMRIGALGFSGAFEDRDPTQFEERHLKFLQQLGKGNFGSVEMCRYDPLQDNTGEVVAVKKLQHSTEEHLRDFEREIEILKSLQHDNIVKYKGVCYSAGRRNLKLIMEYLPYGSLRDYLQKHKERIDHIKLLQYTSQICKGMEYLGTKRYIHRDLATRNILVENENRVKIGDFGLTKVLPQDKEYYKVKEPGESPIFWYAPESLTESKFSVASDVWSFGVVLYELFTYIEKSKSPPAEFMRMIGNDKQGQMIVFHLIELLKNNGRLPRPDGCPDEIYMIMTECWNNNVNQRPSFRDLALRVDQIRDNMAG

MAP2K1 (human) = MAP2K1 (human) (UniProt Q02750); conditions: compound 100.0 µM; ATP 5 µM
MAP2K2 (human) = MAP2K2 (human) (UniProt P36507); conditions: compound 100.0 µM; ATP 5 µM
MAP3K7 TAB1 (human) = MAP3K7 TAB1 (human) (UniProt Q15750+O43318); conditions: compound 100.0 µM; ATP 5 µM
MAPK11 (human) = MAPK11 (human) (UniProt Q15759); conditions: compound 100.0 µM; ATP 20 µM
Chain of MAPK11 (human) (Q15759 whole entry, looked up): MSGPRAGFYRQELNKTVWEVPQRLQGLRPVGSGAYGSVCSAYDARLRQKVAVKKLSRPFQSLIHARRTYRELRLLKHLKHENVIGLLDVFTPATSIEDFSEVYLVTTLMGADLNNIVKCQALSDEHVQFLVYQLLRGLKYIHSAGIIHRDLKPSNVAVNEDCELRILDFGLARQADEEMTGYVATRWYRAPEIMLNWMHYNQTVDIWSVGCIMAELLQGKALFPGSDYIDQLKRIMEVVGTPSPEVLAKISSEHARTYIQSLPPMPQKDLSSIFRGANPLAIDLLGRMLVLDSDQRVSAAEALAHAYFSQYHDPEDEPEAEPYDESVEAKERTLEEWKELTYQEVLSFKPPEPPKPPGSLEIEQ

MAPK12 (human) = MAPK12 (human) (UniProt P53778); conditions: compound 100.0 µM; ATP 5 µM
MAPK14 (human) = MAPK14 (human) (UniProt Q16539); conditions: compound 100.0 µM; ATP 50 µM
MAPKAPK5 (human) = MAPKAPK5 (human) (UniProt Q8IW41); conditions: compound 100.0 µM; ATP 20 µM
MARK4 (human) = MARK4 (human) (UniProt Q96L34); conditions: compound 100.0 µM; ATP 50 µM
Chain of MARK4 (human) (Q96L34 whole entry, looked up): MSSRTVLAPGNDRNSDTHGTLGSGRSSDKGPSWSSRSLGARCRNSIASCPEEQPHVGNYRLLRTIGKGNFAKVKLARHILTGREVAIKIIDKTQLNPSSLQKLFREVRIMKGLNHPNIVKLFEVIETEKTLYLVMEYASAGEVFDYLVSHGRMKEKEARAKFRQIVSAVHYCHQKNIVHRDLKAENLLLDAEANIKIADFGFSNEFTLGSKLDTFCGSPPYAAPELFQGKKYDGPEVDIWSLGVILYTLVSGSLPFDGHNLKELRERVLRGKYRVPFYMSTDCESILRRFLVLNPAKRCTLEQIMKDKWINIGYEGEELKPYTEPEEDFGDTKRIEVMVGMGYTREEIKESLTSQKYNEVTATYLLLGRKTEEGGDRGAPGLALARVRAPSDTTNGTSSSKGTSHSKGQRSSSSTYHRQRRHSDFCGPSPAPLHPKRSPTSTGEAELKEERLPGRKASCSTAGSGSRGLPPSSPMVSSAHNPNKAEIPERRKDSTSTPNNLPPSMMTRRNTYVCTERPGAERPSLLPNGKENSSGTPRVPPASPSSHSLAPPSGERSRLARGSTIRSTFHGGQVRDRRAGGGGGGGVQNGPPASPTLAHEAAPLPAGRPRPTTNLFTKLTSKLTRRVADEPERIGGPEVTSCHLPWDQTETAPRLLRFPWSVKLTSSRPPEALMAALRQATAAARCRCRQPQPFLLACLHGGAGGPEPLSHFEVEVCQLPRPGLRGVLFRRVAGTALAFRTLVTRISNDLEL

MKNK1 (human) = MKNK1 (human) (UniProt Q9BUB5); conditions: compound 100.0 µM; ATP 50 µM
[1] = test system: PAK2 (human), Q13177 [T402E]; conditions: compound 100.0 µM; ATP 20 µM
PAK4 (human) = PAK4 (human) (UniProt O96013); conditions: compound 100.0 µM; ATP 5 µM
Chain of PAK4 (human) (O96013 whole entry, looked up): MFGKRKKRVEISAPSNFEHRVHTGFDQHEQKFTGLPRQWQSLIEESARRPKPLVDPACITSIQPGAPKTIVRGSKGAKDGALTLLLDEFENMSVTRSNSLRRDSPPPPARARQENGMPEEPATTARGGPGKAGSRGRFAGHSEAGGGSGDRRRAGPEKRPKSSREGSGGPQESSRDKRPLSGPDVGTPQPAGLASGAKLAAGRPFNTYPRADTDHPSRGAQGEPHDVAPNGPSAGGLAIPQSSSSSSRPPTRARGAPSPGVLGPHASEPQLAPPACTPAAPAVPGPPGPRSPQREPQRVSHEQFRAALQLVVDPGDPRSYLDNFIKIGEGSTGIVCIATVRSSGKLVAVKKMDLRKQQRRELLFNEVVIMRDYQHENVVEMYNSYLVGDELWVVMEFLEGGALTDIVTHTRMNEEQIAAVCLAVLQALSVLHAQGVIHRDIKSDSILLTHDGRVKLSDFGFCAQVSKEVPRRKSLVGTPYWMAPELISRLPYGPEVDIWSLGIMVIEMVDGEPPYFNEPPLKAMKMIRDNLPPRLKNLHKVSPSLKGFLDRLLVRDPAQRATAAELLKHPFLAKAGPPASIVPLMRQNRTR

PAK7 (human) = PAK7 (human) (UniProt Q9P286); conditions: compound 100.0 µM; ATP 20 µM
PDPK1 (human) = PDPK1 (human) (UniProt O15530); conditions: compound 100.0 µM
PLK1 (human) = PLK1 (human) (UniProt P53350); conditions: compound 100.0 µM; ATP 5 µM
[2] = target: PRKAA1 PRKAB2 PRKAG1 (human) (UniProt O43741+Q13131+P54619); conditions: compound 100.0 µM; ATP 20 µM
PRKCG (human) = PRKCG (human) (UniProt P05129); conditions: compound 100.0 µM; ATP 20 µM
RIPK2 (human) = RIPK2 (human) (UniProt O43353); conditions: compound 100.0 µM; ATP 20 µM
[3] = test system: SGK1 (human), O00141 [S422D]; conditions: compound 100.0 µM; ATP 20 µM
SRC (human) = SRC (human) (UniProt P12931); conditions: compound 100.0 µM; ATP 50 µM
SRPK1 (human) = SRPK1 (human) (UniProt Q96SB4); conditions: compound 100.0 µM; ATP 50 µM
[4] = target: STK11 CAB39 STRADA (human) (UniProt Q9Y376+Q7RTN6+Q15831); conditions: compound 100.0 µM; ATP 20 µM
STK3 (human) = STK3 (human) (UniProt Q13188); conditions: compound 100.0 µM; ATP 20 µM
TTK (human) = TTK (human) (UniProt P33981); conditions: compound 100.0 µM; ATP 20 µM
Chain of TTK (human) (P33981 whole entry, looked up): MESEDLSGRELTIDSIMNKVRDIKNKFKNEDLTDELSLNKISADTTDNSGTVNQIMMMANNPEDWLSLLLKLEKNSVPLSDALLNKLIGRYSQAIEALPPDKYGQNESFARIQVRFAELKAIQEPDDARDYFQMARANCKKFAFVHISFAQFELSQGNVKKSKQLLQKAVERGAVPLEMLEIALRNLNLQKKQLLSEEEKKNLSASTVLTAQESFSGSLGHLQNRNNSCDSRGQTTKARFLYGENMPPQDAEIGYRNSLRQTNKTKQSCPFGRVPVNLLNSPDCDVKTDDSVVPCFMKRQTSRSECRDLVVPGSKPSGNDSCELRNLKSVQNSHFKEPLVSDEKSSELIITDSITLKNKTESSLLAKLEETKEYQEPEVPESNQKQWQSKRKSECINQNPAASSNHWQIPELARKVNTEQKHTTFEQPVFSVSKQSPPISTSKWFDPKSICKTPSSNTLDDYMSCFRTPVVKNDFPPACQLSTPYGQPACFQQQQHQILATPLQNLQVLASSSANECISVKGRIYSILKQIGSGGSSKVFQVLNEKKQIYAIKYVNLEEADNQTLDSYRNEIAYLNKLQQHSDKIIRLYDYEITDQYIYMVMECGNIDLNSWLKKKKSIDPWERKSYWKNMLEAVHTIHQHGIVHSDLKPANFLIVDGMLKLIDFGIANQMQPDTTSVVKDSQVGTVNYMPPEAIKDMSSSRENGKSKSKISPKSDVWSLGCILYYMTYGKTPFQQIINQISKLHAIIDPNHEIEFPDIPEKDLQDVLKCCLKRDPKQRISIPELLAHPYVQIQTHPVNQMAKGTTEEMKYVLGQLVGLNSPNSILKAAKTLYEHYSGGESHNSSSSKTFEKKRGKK

YES1 (human) = YES1 (human) (UniProt P07947); conditions: compound 100.0 µM; ATP 20 µM

Chain of CAMKK2 (human) (Q96RR4 whole entry, looked up): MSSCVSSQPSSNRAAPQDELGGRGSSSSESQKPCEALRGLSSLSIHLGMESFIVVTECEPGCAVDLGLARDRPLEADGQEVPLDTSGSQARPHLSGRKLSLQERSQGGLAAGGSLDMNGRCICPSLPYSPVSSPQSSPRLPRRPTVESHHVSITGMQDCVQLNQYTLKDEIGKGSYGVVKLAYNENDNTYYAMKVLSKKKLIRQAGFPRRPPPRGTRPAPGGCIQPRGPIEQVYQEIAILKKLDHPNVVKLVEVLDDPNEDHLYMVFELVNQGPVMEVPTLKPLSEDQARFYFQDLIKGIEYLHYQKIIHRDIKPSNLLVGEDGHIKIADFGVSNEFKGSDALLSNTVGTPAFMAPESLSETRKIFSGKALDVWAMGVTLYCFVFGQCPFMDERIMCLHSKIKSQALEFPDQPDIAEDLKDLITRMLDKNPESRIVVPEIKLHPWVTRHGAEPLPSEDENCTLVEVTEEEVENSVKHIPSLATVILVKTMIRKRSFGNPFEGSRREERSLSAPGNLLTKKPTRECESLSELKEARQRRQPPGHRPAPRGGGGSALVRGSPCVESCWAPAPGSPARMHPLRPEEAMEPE

| Structure (SMILES) | inhibition (AURKB (human)) | inhibition (CAMKK2 (human)) | inhibition (CHEK1 (human)) | inhibition (CHEK2 (human)) | inhibition (CLK2 (human)) | inhibition (CSK (human)) | inhibition (DYRK2 (human)) | inhibition (EPHB3 (human)) | inhibition (GCK (human)) | inhibition (GSK3B (human)) | inhibition (HIPK1 (human)) | inhibition (IGF1R (human)) | inhibition (IKBKB (human)) | inhibition (IRAK4 (human)) | inhibition (JAK2 JH1 JH2 (human)) | inhibition (MAP2K1 (human)) | inhibition (MAP2K2 (human)) | inhibition (MAP3K7 TAB1 (human)) | inhibition (MAPK11 (human)) | inhibition (MAPK12 (human)) | other results |
| --- | --- | --- | --- | --- | --- | --- | --- | --- | --- | --- | --- | --- | --- | --- | --- | --- | --- | --- | --- | --- | --- |
| CC(=O)Nc1nc2cnc(-c3ccccc3)cn2n1 | 61% | 41% | 18% | 25% | 79% | 29% | 30% | 32% | 39% | 73% | 16% | 11% | 10% | 39% | 25% | 34% | 6% | 30% | 22% | 24% | inhibition (MAPK14 (human)): 10%; inhibition (MAPKAPK5 (human)): 6%; inhibition (MARK4 (human)): 0%; inhibition (MKNK1 (human)): 53%; inhibition [1]: 0%; inhibition (PAK4 (human)): 47%; inhibition (PAK7 (human)): 20%; inhibition (PDPK1 (human); ATP 20 µM): 15%; inhibition (PDPK1 (human); ATP 50 µM): 13%; inhibition (PLK1 (human)): 4%; inhibition [2]: 14%; inhibition (PRKCG (human)): 2%; inhibition (RIPK2 (human)): 29%; inhibition [3]: 16%; inhibition (SRC (human)): 18%; inhibition (SRPK1 (human)): 25%; inhibition [4]: 0%; inhibition (STK3 (human)): 0%; inhibition (TTK (human)): 4%; inhibition (YES1 (human)): 35% |
| CC(C)(C)Nc1c(COCc2ccccc2)nc2[nH]cnn12 | 12% | 28% | 0% | 19% | 43% | 0% | 6% | 90% | 0% | 38% | 0% | 0% | 9% | 0% | 11% | 0% | 11% | 31% | 3% | 0% | inhibition (MAPK14 (human)): 5%; inhibition (MAPKAPK5 (human)): 44%; inhibition (MARK4 (human)): 22%; inhibition (MKNK1 (human)): 0%; inhibition [1]: 14%; inhibition (PAK4 (human)): 0%; inhibition (PAK7 (human)): 0%; inhibition (PDPK1 (human); ATP 20 µM): 13%; inhibition (PDPK1 (human); ATP 50 µM): 8%; inhibition (PLK1 (human)): 0%; inhibition [2]: 18%; inhibition (PRKCG (human)): 8%; inhibition (RIPK2 (human)): 13%; inhibition [3]: 0%; inhibition (SRC (human)): 12%; inhibition (SRPK1 (human)): 3%; inhibition [4]: 0%; inhibition (STK3 (human)): 0%; inhibition (TTK (human)): 7%; inhibition (YES1 (human)): 4% |
| Cc1cccc(C)c1-c1cn2nc(N)nc2cn1 | 29% | 21% | 9% | 13% | 33% | 24% | 21% | 35% | 59% | 27% | 16% | 5% | 0% | 18% | 16% | 22% | 28% | 3% | 20% | 0% | inhibition (MAPK14 (human)): 35%; inhibition (MAPKAPK5 (human)): 26%; inhibition (MARK4 (human)): 24%; inhibition (MKNK1 (human)): 24%; inhibition [1]: 56%; inhibition (PAK4 (human)): 0%; inhibition (PAK7 (human)): 13%; inhibition (PDPK1 (human); ATP 20 µM): 15%; inhibition (PDPK1 (human); ATP 50 µM): 13%; inhibition (PLK1 (human)): 8%; inhibition [2]: 12%; inhibition (PRKCG (human)): 6%; inhibition (RIPK2 (human)): 43%; inhibition [3]: 19%; inhibition (SRC (human)): 29%; inhibition (SRPK1 (human)): 31%; inhibition [4]: 0%; inhibition (STK3 (human)): 9%; inhibition (TTK (human)): 20%; inhibition (YES1 (human)): 42% |

— the kinase profiling compilation of Christmann-Franck et al. (2016)
